Data from ChEMBL document CHEMBL4138213, “Synthesis and biological characterization of ubenimex-fluorouracil conjugates for anti-cancer therapy” (Eur J Med Chem, 2018).
Active and inactive are the calls of the source. The rule behind the calls is not given here.

Assays:
Aminopeptidase N = target: T1, Aminopeptidase N (Sus scrofa, UniProt P15145); test: Inhibition of porcine kidney CD13 using L-leucine-p-nitroanilide as substrate preincubated for 5 mins followed by substrate addition measured after 30 mins
T1 sequence (P15145 whole entry): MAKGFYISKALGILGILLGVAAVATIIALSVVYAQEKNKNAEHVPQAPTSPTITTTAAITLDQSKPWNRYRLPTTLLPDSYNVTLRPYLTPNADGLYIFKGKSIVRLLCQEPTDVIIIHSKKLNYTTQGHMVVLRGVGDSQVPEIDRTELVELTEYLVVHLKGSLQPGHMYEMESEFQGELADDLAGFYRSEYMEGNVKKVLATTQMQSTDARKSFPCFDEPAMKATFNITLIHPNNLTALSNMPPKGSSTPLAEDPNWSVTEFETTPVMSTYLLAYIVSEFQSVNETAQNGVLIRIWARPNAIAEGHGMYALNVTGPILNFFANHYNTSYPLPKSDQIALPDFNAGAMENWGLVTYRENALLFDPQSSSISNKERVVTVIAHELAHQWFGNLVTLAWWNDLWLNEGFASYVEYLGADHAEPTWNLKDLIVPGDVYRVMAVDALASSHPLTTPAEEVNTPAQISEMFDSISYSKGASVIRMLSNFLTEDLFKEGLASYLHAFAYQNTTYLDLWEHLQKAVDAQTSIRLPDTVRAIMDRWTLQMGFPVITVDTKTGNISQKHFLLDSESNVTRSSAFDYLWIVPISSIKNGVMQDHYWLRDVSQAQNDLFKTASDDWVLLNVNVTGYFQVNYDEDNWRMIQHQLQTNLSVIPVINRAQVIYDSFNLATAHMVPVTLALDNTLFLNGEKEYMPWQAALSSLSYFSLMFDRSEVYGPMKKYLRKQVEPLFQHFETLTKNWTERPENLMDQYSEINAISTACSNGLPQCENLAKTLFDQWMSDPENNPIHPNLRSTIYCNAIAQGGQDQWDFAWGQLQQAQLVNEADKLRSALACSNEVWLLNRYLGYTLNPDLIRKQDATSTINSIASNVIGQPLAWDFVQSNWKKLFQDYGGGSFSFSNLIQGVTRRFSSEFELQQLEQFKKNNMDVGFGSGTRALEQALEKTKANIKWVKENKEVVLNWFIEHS

PLC-PRF-5 [1] = test: Antiproliferative activity against human PLC/PRF/5 cells after 48 hrs by MTT assay; conditions: PLC-PRF-5, 48 h
cells = conditions: Homo sapiens, ES-2, 48 h
Description: Antiproliferative activity against human ES2 cells after 48 hrs by MTT assay

[2] = (§1) Terminal Half life in Wistar rat at 80 mg/kg, iv after 0.05 to 24 hrs by HPLC-MS/MS analysis; assay type: ADME, organism-based; conditions: Wistar, in vivo, read-out: beta t1/2 (converted)
[3] = Drug level in Wistar rat plasma treated with (5-fluoro-2,4-dioxo-3,4-dihydropyrimidin1(2H)-yl)methyl-2-((S)-2-((2S,3R)-3-amino-2-hydroxy-4-phenylbut-anamido)-4-methylpentanamido)acetate hydrochloride assessed as carboxylesterase-mediated compound formation at 80 mg/kg, iv by HPLC-MS/MS analysis; assay type: ADME, organism-based; conditions: in vivo
[4] = AUC (0 to infinity) in Wistar rat at 80 mg/kg, iv after 0.05 to 24 hrs by HPLC-MS/MS analysis; assay type: ADME, organism-based; parameters: dose 80 mg/kg, time infinity, route intravenous; conditions: in vivo
[5] = Apparent clearance in Wistar rat at 80 mg/kg, iv after 0.05 to 24 hrs by HPLC-MS/MS analysis; assay type: ADME, organism-based; conditions: in vivo, read-out: CL(app) (converted)
[6] = (§2) MRT (0 to infinity) in Wistar rat at 80 mg/kg, iv after 0.05 to 24 hrs by HPLC-MS/MS analysis; assay type: ADME, organism-based; conditions: Wistar, in vivo
[7] = Cmax in Wistar rat at 80 mg/kg, iv after 0.05 to 24 hrs by HPLC-MS/MS analysis; assay type: ADME, organism-based; parameters: dose 80 mg/kg, route intravenous; conditions: in vivo
Rattus norvegicus [8] = test: VRT (0 to infinity) in Wistar rat at 80 mg/kg, iv after 0.05 to 24 hrs by HPLC-MS/MS analysis; assay type: ADME, organism-based; conditions: in vivo
[9] = Volume of distribution during elimination phase in Wistar rat at 80 mg/kg, iv after 0.05 to 24 hrs by HPLC-MS/MS analysis; assay type: ADME, organism-based; conditions: in vivo, read-out: Vz
Rattus norvegicus [10] = test: as §1; assay type: ADME, organism-based; conditions: in vivo
HCT-116 = test: cells; conditions: Homo sapiens, HCT-116, 48 h
PLC-PRF-5 [11] = test: Induction of apoptosis in human PLC/PRF/5 cells assessed as viable cells at 20 uM after 48 hrs by annexin-V-FITC/propidium iodide staining-based flow cytometric method (reference value: 93.7%); assay type: functional; conditions: PLC-PRF-5, 48 h, read-out: Activity
H22 [12] = test: Antitumor activity against 5-FU-resistant […] cells xenografted in Kunming mouse at 82 mg/kg, iv after 14 days; assay type: functional, organism-based
Mus musculus [13] = test: Toxicity in Kunming mouse xenografted with 5-FU-resistant […] H22 cells assessed as mortality at 82 mg/kg, iv after 14 days; assay type: organism-based; conditions: in vivo, 336 h
PLC-PRF-5 [14] = test: Induction of apoptosis in human PLC/PRF/5 cells assessed as early apoptotic cells at 20 uM after 48 hrs by annexin-V-FITC/propidium iodide staining-based flow cytometric method (reference value: 5.82%); assay type: functional
[15] = Drug metabolism in Wistar rat plasma assessed as peptidase-mediated ubenimex formation at 80 mg/kg, iv by HPLC-MS/MS analysis; assay type: ADME, organism-based; conditions: in vivo
[16] = Antiproliferative activity against human H7402 cells after 48 hrs by MTT assay; conditions: H7402, 48 h
U-937 = test: cells; conditions: Homo sapiens, U-937, 48 h
Description: Antiproliferative activity against human U937 cells after 48 hrs by MTT assay

PLC-PRF-5 [17] = test: Induction of apoptosis in human PLC/PRF/5 cells assessed as necrotic cells at 20 uM after 48 hrs by annexin-V-FITC/propidium iodide staining-based flow cytometric method (reference value: 0.106%); assay type: functional
PLC-PRF-5 [18] = test: Induction of apoptosis in human PLC/PRF/5 cells assessed as late apoptotic cells at 20 uM after 48 hrs by annexin-V-FITC/propidium iodide staining-based flow cytometric method (reference value: 0.341%); assay type: functional
H22 [19] = test: Antimetastatic activity in […] cells xenografted in iv dosed mouse assessed as decrease in lung metastasis nodus number administered 5 days followed by 2 days of withdrawal; assay type: functional, organism-based
HepG2 = test: cells; conditions: Homo sapiens, HepG2, 48 h
H22 [20] = test: Antitumor activity against […] cells xenografted in iv dosed mouse administered 5 days per week for 2 weeks; assay type: functional, organism-based
Mus musculus [21] = test: Toxicity in Kunming mouse xenografted with 5-FU-resistant […] H22 cells assessed as body weight loss at 82 mg/kg, iv measured for 14 days during compound dosing; assay type: organism-based; conditions: in vivo, 336 h
PLC-PRF-5 [22] = test: Downregulation of CD13 expression in human PLC/PRF/5 cells at 10 uM after 48 hrs by flow cytometric method; assay type: functional, cell-based
Thoracic aorta = test: Antiangiogenic activity in Wistar rat thoracic aorta ring assessed as inhibition of microvessels sprouting at 20 ug/ml treated every other day for 9 days; assay type: functional, tissue-based
[23] = Drug metabolism in human plasma assessed as 5-FU formation at 4 mg/ml after 8 hrs by HPLC method; assay type: ADME, cell-free
Rattus norvegicus [24] = test: as §2; assay type: ADME, organism-based; conditions: in vivo
A549 = test: Antiproliferative activity against human A549 cells after 48 hrs by MTT assay; conditions: A549, 48 h
PLC-PRF-5 [25] = test: Induction of reactive oxygen species formation in human PLC/PRF/5 cells at 10 uM by DCF-DA staining-based flow cytometric method; assay type: functional, cell-based; conditions: TDE = time-dependent effect
Homo sapiens = organism: Homo sapiens; test: Antiinvasive activity in human ES2 cells at 5 ug/ml after 24 hrs by transwell assay; assay type: functional, cell-based
PLC-PRF-5 [26] = test: Anticlonogenic activity against human PLC/PRF/5 cells after 2 weeks by Giemsa staining-based inverted microscopic method; assay type: functional, cell-based
[27] = Drug metabolism in Wistar rat plasma assessed as carboxylesterase-mediated 2-((S)-2-((2S,3R)-3-amino-2-hydroxy-4-phenylbutanamido)-4-methylpentan-amido)-acetic acid formation at 80 mg/kg, iv by HPLC-MS/MS analysis; assay type: ADME, organism-based; conditions: in vivo
[28] = Drug metabolism in Wistar rat plasma assessed as carboxylesterase-mediated 5-FU formation at 80 mg/kg, iv by HPLC-MS/MS analysis; assay type: ADME, organism-based; conditions: in vivo
U-266 = test: Antiproliferative activity against human U266 cells after 48 hrs by MTT assay; conditions: U-266, 48 h

Structure (SMILES): CC(C)C[C@H](NC(=O)[C@@H](O)[C@H](N)Cc1ccccc1)C(=O)NCCC(=O)OCn1cc(F)c(=O)[nH]c1=O
- IC50 (Aminopeptidase N): 680 nM
- IC50 (PLC-PRF-5 [1]): 59 µM
- IC50 (cells): 131 µM

Structure (SMILES): CC(C)C[C@H](NC(=O)[C@@H](O)[C@H](N)Cc1ccccc1)C(=O)NCC(=O)O.Cl
- half-life [2]: 74 min
- Drug metabolism [3]: Metabolite_Detected
- AUC(0-inf) [4]: 36200 ng·h/mL
- clearance [5]: 36.8 mL/min/kg
- IC50 (Aminopeptidase N): 600 nM
- MRT inf [6]: 3.22 h
- Cmax [7]: 8570 ng/mL
- VRT (Rattus norvegicus [8]): 3.797 hr2
- Vd [9]: 3.93 L/kg

Structure (SMILES): CC(C)C[C@H](NC(=O)[C@@H](O)[C@H](N)Cc1ccccc1)C(=O)NCC(=O)OCn1cc(F)c(=O)[nH]c1=O.Cl
- beta t1/2 (Rattus norvegicus [10]): 47.7 min
- IC50 (HCT-116): 26 µM
- viability at 20 µM (PLC-PRF-5 [11]): 71.1%
- Activity (H22 [12]): Active
- Activity (Mus musculus [13]): Non-Toxic
- Activity (PLC-PRF-5 [14]): 24.2%
- Drug metabolism [15]: Metabolite_Detected
- IC50 [16]: 19.9 µM
- IC50 (U-937): 10.2 µM
- Activity (PLC-PRF-5 [17]): 0%
- Activity (PLC-PRF-5 [18]): 4.69%
- Activity (H22 [19]): Dose-dependent effect
- IC50 (HepG2): 14.2 µM
- Activity (H22 [20]): Dose-dependent effect
- AUC(0-inf) [4]: 14700 ng·h/mL
- clearance [5]: 90.5 mL/min/kg
- Activity (Mus musculus [21]): Non-Toxic
- Activity (PLC-PRF-5 [22]): Active
- Activity (Thoracic aorta): Active
- IC50 (Aminopeptidase N): 180 nM
- Drug metabolism [23]: Metabolite_Detected
- MRT (Rattus norvegicus [24]): 2.576 h
- IC50 (A549): 15.3 µM
- Cmax [7]: 5870 ng/mL
- IC50 (PLC-PRF-5 [1]): 16.5 µM
- Activity (PLC-PRF-5 [25]): Tde
- IC50 (cells): 23.5 µM
- VRT (Rattus norvegicus [8]): 4.423 hr2
- Activity (Homo sapiens): Active
- Activity (PLC-PRF-5 [26]): Dose-dependent effect
- Drug metabolism [27]: Metabolite_Detected
- Drug metabolism [28]: Metabolite_Detected
- Vd [9]: 6.23 L/kg
- IC50 (U-266): 31.6 µM

Structure (SMILES): CC(C)C[C@H](NC(=O)[C@@H](O)[C@H](N)Cc1ccccc1)C(=O)NCCCC(=O)OCn1cc(F)c(=O)[nH]c1=O
- IC50 (Aminopeptidase N): 690 nM
- IC50 (PLC-PRF-5 [1]): 53 µM
- IC50 (cells): 110 µM

Structure (SMILES): CC(C)C[C@H](NC(=O)[C@@H](O)[C@H](N)Cc1ccccc1)C(=O)N[C@@H](C)C(=O)OCn1cc(F)c(=O)[nH]c1=O
- IC50 (Aminopeptidase N): 170 nM
- IC50 (PLC-PRF-5 [1]): 24.2 µM
- IC50 (cells): 25.3 µM

Structure (SMILES): CC(C)C[C@H](NC(=O)[C@@H](O)[C@H](N)Cc1ccccc1)C(=O)OCn1cc(F)c(=O)[nH]c1=O
- IC50 (Aminopeptidase N): 3180 nM
- IC50 (PLC-PRF-5 [1]): 18.4 µM
- IC50 (cells): 26.1 µM

Structure (SMILES): CC(C)C[C@H](NC(=O)[C@@H](O)[C@H](N)Cc1ccccc1)C(=O)NCCCCCC(=O)OCn1cc(F)c(=O)[nH]c1=O
- IC50 (Aminopeptidase N): 1830 nM
- IC50 (PLC-PRF-5 [1]): 60.1 µM
- IC50 (cells): 104 µM
